The values that follow come from patent EP0908457B1, “3-(1,2-benzisothiazol- and isoxazol-5-Y1)-2,4(1H,3H)-pyrimidinedione or thione and 3-(1,2-benzisothiazol- and isoxazol-5-y1)-4(3H)-pyrimidinone or thione herbicidal agents” (BASF AKTIENGESELLSCHAFT, priority 1997, dated 1999).

Each structure is given as a SMILES string.

Series [1] deals with Oryza sativa, (L.) Tebonnet. Put plainly: Rice tolerance to post-transplant applications under flooded paddy conditions (Example 187), ORYSAT (Rice, Tebonnet). The following applies: rated three to four weeks after treatment.
The next series deals with Sagittaria pygmaea, L. Briefly: Preemergence weed control under flooded paddy conditions, SAGPY (Arrowhead (Pygmaea)). Format: in vivo. Particulars: flooded paddy, rated three to four weeks after treatment.
The subject of series [2] is Cyperus serotinus, Rottb. Put plainly: Preemergence weed control under flooded paddy conditions, CYPSE (Flatsedge). The format is in vivo. Particulars: rated three to four weeks after treatment.
Series [3] concerns Echinochloa oryzoides (Ard.) Fritsch. Put plainly: Preemergence weed control under flooded paddy conditions, ECHORC (Watergrass (Calif.)). Format: in vivo. Particulars: flooded paddy, rated three to four weeks after treatment.
A further series relates to Cyperus iria. Briefly: Preemergence weed control under flooded paddy conditions, CYPIR (Rice Flatsedge). The format is in vivo. Particulars: flooded paddy, rated three to four weeks after treatment.
[4] abbreviates: Rate 0.0320 kg/ha, preemergence.
Where [5] appears, read: Rate 0.0620 kg/ha, preemergence.
Setting [6] is: Rate 0.1250 kg/ha, preemergence.
The mark [7] stands for this setting: Rate 0.2500 kg/ha, preemergence weeds.
Setting [8] is: Rate 0.2500 kg/ha, preemergence.
Further: meaning of each grade not given here.

`C#CCOC(=O)COc1ccc(OC)cc1-c1nsc2ccc(-n3c(=O)cc(C(F)(F)F)n(C)c3=O)cc12` [Example 349, Acetic acid, {2-{5-[3,6-dihydro-3-methyl-2,6-dioxo-4-(trifluoromethyl)-1(2H)-pyrimidinyl]-1,2-benzisothiazol-3-yl}-4-methoxyphenoxy}-, 2-propynyl ester]: the “herbicidal effect rating ORYSAT” value in series [1] (Rate 0.0320 kg/ha) is 4.0; in series [1] (Rate 0.0620 kg/ha) it was 5.0; in series [1] (Rate 0.1250 kg/ha), 7.0; in series [1] (Rate 0.2500 kg/ha) it was 7.0. For the same compound, the “herbicidal effect rating, SAGPY” value is reported as 4.0 with Sagittaria pygmaea, L. (setting [4]); 5.0 with Sagittaria pygmaea, L. (setting [5]); 5.0 in the series with Sagittaria pygmaea, L. (setting [6]); 6.0 with Sagittaria pygmaea, L. (setting [7]). Also, the “herbicidal effect rating, CYPSE” value in series [2] (setting [4]), in series [2] (setting [5]), in series [2] (setting [6]) and in series [2] (setting [7]) was 4.0 in each case. The “herbicidal effect rating, ECHORC” value in series [3] (setting [4]) stood at 5.0; in series [3] (setting [5]), 5.0; in series [3] (setting [6]), 6.0; in series [3] (setting [7]), 7.0. Moreover, the “herbicidal effect rating, CYPIR” value amounted to 0.0 with Cyperus iria (setting [4]), 4.0 in the series on Cyperus iria (setting [5]), 7.0 in the series on Cyperus iria (setting [6]) and 7.0 with Cyperus iria (setting [7]).
Consider `C=CCOC(C)c1nsc2ccc(-n3c(=O)cc(C(F)(F)F)n(C)c3=O)cc12` (stereo not shown) [Example 351, 2,4(1H,3H)-Pyrimidinedione, 3-{3-[1-(allyloxy)ethyl]-1,2-benzisothiazol-5-yl}-1-methyl-6-(trifluoromethyl)-], for which the “herbicidal effect rating ORYSAT” value is recorded as 7.0 in series [1] (Rate 0.0320 kg/ha), 7.0 in series [1] (Rate 0.0620 kg/ha), 7.0 in series [1] (Rate 0.1250 kg/ha) and 9.0 in series [1] (Rate 0.2500 kg/ha). In addition, the “herbicidal effect rating, SAGPY” value in the series on Sagittaria pygmaea, L. (setting [4]) was determined as 5.0; in the series on Sagittaria pygmaea, L. (setting [5]), 6.0; in the series with Sagittaria pygmaea, L. (setting [6]), 7.0; in the series on Sagittaria pygmaea, L. (setting [8]), 7.0. Further, the “herbicidal effect rating, CYPSE” value in series [2] (setting [4]) was 0.0; in series [2] (setting [5]), 6.0; in series [2] (setting [6]), 6.0; in series [2] (setting [8]), 8.0. Also, the “herbicidal effect rating, ECHORC” value in series [3] (setting [4]) was 5.0; in series [3] (setting [5]), 6.0; in series [3] (setting [6]), 6.0; in series [3] (setting [8]), 7.0. The “herbicidal effect rating, CYPIR” value in the series with Cyperus iria (setting [4]) is 6.0; in the series with Cyperus iria (setting [5]), 7.0; with Cyperus iria (setting [6]), 7.0; with Cyperus iria (setting [8]), 9.0.
